From patent US8927717B1, “Thiochromeno[2,3-c]quinolin-12-one derivatives, preparation method and application thereof” (National Defense Medical Center, priority 2014, dated 2015)

Tests used:
SF-539 = type: cell-based; settings: CNS cancer; 10^−5 molar; 48 hours; SRB
M14 = type: cell-based; settings: Melanoma; 10^−5 molar; 48 hours; SRB
BT-549 = type: cell-based; settings: Breast cancer; 10^−5 molar; 48 hours; SRB
A498 = type: cell-based; settings: Renal cancer; 10^−5 molar; 48 hours; SRB
K-562 = type: cell-based; settings: Leukemia; 10^−5 molar; 48 hours; SRB
SK-OV-3 = type: cell-based; settings: Ovarian cancer; 10^−5 molar; 48 hours; SRB
MDA-MB-231/ATCC = type: cell-based; settings: Breast cancer; 10^−5 molar; 48 hours; SRB
ACHN = type: cell-based; settings: Renal cancer; 10^−5 molar; 48 hours; SRB
CAKI-1 = type: cell-based; settings: Renal cancer; 10^−5 molar; 48 hours; SRB
786-0 = type: cell-based; settings: Renal cancer; 10^−5 molar; 48 hours; SRB
MDA-MB-486 = type: cell-based; settings: Breast cancer; 10^−5 molar; 48 hours; SRB
HCC-2998 = type: cell-based; settings: Colon cancer; 10^−5 molar; 48 hours; SRB
SN12C = type: cell-based; settings: Renal cancer; 10^−5 molar; 48 hours; SRB
MCF7 = type: cell-based; settings: Breast cancer; 10^−5 molar; 48 hours; SRB
SK-MEL-2 = type: cell-based; settings: Melanoma; 10^−5 molar; 48 hours; SRB
HS 578T = type: cell-based; settings: Breast cancer; 10^−5 molar; 48 hours; SRB
KM12 = test: cells; type: cell-based; settings: Colon cancer; 10^−5 molar; 48 hours; SRB
RXF 393 = type: cell-based; settings: Renal cancer; 10^−5 molar; 48 hours; SRB
PC-3 = type: cell-based; settings: Prostate cancer; 10^−5 molar; 48 hours; SRB
HOP-62 = type: cell-based; settings: Non-small cell lung cancer; 10^−5 molar; 48 hours; SRB
HCT-15 = type: cell-based; settings: Colon cancer; 10^−5 molar; 48 hours; SRB
T-47D = type: cell-based; settings: Breast cancer; 10^−5 molar; 48 hours; SRB
UACC-62 = type: cell-based; settings: Melanoma; 10^−5 molar; 48 hours; SRB
OVCAR-3 = type: cell-based; settings: Ovarian cancer; 10^−5 molar; 48 hours; SRB
SNB-19 = type: cell-based; settings: CNS cancer; 10^−5 molar; 48 hours; SRB
A549/ATCC = type: cell-based; settings: Non-small cell lung cancer; 10^−5 molar; 48 hours; SRB
OVCAR-8 = type: cell-based; settings: Ovarian cancer; 10^−5 molar; 48 hours; SRB
CCRF-CEM = type: cell-based; settings: Leukemia; 10^−5 molar; 48 hours; SRB
OVCAR-4 = type: cell-based; settings: Ovarian cancer; 10^−5 molar; 48 hours; SRB
HL-60(TB) = type: cell-based; settings: Leukemia; 10^−5 molar; 48 hours; SRB
MDA-MB-435 = type: cell-based; settings: Melanoma; 10^−5 molar; 48 hours; SRB
COLO 205 = type: cell-based; settings: Colon cancer; 10^−5 molar; 48 hours; SRB
SK-MEL-28 = type: cell-based; settings: Melanoma; 10^−5 molar; 48 hours; SRB
UACC-257 = type: cell-based; settings: Melanoma; 10^−5 molar; 48 hours; SRB
TK-10 = type: cell-based; settings: Renal cancer; 10^−5 molar; 48 hours; SRB
SW-620 = type: cell-based; settings: Colon cancer; 10^−5 molar; 48 hours; SRB
HCT-116 = type: cell-based; settings: Colon cancer; 10^−5 molar; 48 hours; SRB
UO-31 = type: cell-based; settings: Renal cancer; 10^−5 molar; 48 hours; SRB
NCI/ADR-RES = type: cell-based; settings: Ovarian cancer; 10^−5 molar; 48 hours; SRB
LOX IMVI = type: cell-based; settings: Melanoma; 10^−5 molar; 48 hours; SRB
SK-MEL-5 = type: cell-based; settings: Melanoma; 10^−5 molar; 48 hours; SRB
SNB-75 = type: cell-based; settings: CNS cancer; 10^−5 molar; 48 hours; SRB
HOP-92 = type: cell-based; settings: Non-small cell lung cancer; 10^−5 molar; 48 hours; SRB
60 cancer cell lines = test: NCI 60-cell screen, SRB, whole panel (mean, delta, range); type: cell-based; settings: 10^−5 molar, 48 hours, SRB
SF-268 = type: cell-based; settings: CNS cancer; 10^−5 molar; 48 hours; SRB
NCI-H226 = type: cell-based; settings: Non-small cell lung cancer; 10^−5 molar; 48 hours; SRB
NCI-H522 = type: cell-based; settings: Non-small cell lung cancer; 10^−5 molar; 48 hours; SRB
SR = type: cell-based; settings: Leukemia; 10^−5 molar; 48 hours; SRB
RPMI-8226 = type: cell-based; settings: Leukemia; 10^−5 molar; 48 hours; SRB
NCI-H460 = type: cell-based; settings: Non-small cell lung cancer; 10^−5 molar; 48 hours; SRB
DU-145 = type: cell-based; settings: Prostate cancer; 10^−5 molar; 48 hours; SRB
HT29 = type: cell-based; settings: Colon cancer; 10^−5 molar; 48 hours; SRB
NCI-H23 = type: cell-based; settings: Non-small cell lung cancer; 10^−5 molar; 48 hours; SRB
SF-295 = type: cell-based; settings: CNS cancer; 10^−5 molar; 48 hours; SRB
MOLT-4 = type: cell-based; settings: Leukemia; 10^−5 molar; 48 hours; SRB
U251 = type: cell-based; settings: CNS cancer; 10^−5 molar; 48 hours; SRB
IGROV1 = type: cell-based; settings: Ovarian cancer; 10^−5 molar; 48 hours; SRB
MALME-3M = type: cell-based; settings: Melanoma; 10^−5 molar; 48 hours; SRB
OVCAR-5 = type: cell-based; settings: Ovarian cancer; 10^−5 molar; 48 hours; SRB
[1] = target: T1, TOP II (Topoisomerase II) (Homo sapiens, UniProt P11388); test: TOP II-catalyzed relaxation of plasmid DNA assay; type: biochemical
T1 construct: purchased TopoGEN TG-2000H-1
T1 sequence (P11388 whole entry): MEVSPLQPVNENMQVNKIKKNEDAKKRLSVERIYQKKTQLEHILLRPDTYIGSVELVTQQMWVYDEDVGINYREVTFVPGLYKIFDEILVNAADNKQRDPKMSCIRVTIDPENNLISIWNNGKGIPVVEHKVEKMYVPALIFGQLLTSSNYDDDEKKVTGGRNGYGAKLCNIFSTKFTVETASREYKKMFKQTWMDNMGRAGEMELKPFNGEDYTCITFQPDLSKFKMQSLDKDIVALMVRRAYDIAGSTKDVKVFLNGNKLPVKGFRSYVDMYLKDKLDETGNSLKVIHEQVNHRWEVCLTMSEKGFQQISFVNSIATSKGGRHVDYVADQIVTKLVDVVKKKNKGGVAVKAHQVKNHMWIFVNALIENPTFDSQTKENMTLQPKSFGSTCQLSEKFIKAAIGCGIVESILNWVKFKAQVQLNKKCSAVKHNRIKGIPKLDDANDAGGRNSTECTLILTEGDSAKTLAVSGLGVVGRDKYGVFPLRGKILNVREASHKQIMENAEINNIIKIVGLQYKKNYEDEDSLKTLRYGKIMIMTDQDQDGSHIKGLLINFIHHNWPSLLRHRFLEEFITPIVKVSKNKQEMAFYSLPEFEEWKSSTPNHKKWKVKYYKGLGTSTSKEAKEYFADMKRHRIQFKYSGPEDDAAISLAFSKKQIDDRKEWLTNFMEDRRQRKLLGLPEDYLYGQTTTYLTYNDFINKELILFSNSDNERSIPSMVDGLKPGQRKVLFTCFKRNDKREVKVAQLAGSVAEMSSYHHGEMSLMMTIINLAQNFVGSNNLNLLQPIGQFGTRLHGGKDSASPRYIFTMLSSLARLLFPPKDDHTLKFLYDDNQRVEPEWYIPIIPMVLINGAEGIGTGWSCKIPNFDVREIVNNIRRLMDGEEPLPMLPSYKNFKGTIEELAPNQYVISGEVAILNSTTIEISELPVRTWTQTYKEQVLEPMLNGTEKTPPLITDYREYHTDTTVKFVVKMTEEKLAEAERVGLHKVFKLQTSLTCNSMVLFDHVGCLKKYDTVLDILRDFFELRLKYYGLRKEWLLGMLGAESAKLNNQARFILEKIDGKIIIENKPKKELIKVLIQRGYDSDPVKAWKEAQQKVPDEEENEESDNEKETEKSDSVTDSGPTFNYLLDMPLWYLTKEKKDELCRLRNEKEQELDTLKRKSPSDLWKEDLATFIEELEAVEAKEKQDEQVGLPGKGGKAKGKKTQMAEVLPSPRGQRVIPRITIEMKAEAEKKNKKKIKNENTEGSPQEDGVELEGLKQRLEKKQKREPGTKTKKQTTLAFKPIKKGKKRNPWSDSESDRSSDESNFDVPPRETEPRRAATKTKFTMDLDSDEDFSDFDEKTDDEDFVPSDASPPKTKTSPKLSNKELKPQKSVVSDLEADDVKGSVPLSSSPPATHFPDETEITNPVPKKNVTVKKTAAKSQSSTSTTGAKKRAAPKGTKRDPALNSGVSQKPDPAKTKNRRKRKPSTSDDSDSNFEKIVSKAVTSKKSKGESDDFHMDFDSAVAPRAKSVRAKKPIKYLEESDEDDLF
Procedure: We also performed TOP II-catalyzed relaxation of plasmid DNA assays (FIG. 5-7) to evaluate if compounds could inhibit TOP II. […] The IC50 value of compounds 7, N7, N8, N14, N15, N18, and N19 were about 10, 10, 1, 10, 5, 1, and 1 μM, respectively (detect by TopoGEN TG2005H, TG-2000H-1).

With `O=c1c2cc(Cl)ccc2sc2c(N3CCN(Cc4ccccc4)CC3)nc3ccccc3c12` [Compound 11, 6-(4-Benzylpiperazin-1-yl)-10-chloro-12H-thiochromeno[2,3-c]quinolin-12-one] the “Growth percent SF-539” value (SF-539) was 108.56%, the “Growth percent M14” value (M14) was 93.00% and the “Growth percent BT-549” value (BT-549) was 114.05%. For the same compound, the “Growth percent A498” value (A498) was 94.17%, the “Growth percent K-562” value (K-562) was 87.84% and the “Growth percent SK-OV-3” value (SK-OV-3) was 94.79%. The melting point was 191 to 193 °C, the “Growth percent MDA-MB-231/ATCC” value (MDA-MB-231/ATCC) was 89.11% and the “Growth percent ACHN” value (ACHN) was 96.39%. For the same compound, the “Growth percent CAKI-1” value (CAKI-1) was 94.03%, the “Growth percent 786-0” value (786-0) was 105.57% and the “Growth percent MDA-MB-486” value (MDA-MB-486) was 98.53%. For the same compound, the “Growth percent HCC-2998” value (HCC-2998) was 99.32%, the “Growth percent SN12C” value (SN12C) was 97.70% and the “Growth percent MCF7 (Table 2: MCF)” value (MCF7) was 68.32%. The “Growth percent SK-MEL-2” value (SK-MEL-2) was 107.37%, the “Growth percent HS 578T” value (HS 578T) was 76.42% and the “Growth percent KM12” value (KM12) was 107.75%. The “Growth percent RXF 393” value (RXF 393) was 100.71%, the “Growth percent PC-3” value (PC-3) was 89.12% and the “Growth percent HOP-62” value (HOP-62) was 87.72%. For the same compound, the “Growth percent HCT-15” value (HCT-15) was 94.51%, the “Growth percent T-47D” value (T-47D) was 89.22% and the “Growth percent UACC-62” value (UACC-62) was 96.00%. For the same compound, the “Growth percent OVCAR-3” value (OVCAR-3) was 101.69%, the “Growth percent SNB-19” value (SNB-19) was 95.52% and the “Growth percent A549/ATCC” value (A549/ATCC) was 106.37%. For the same compound, the “Growth percent OVCAR-8” value (OVCAR-8) was 98.54%, the “Growth percent CCRF-CEM” value (CCRF-CEM) was 95.42% and the “Growth percent OVCAR-4” value (OVCAR-4) was 102.43%. For the same compound, the “Growth percent HL-60(TB)” value (HL-60(TB)) was 100.96%, the “Growth percent MDA-MB-435” value (MDA-MB-435) was 96.99% and the “Growth percent COLO 205” value (COLO 205) was 105.64%. For the same compound, the “Growth percent SK-MEL-28” value (SK-MEL-28) was 104.19%, the “Growth percent UACC-257” value (UACC-257) was 95.39% and the “Growth percent TK-10” value (TK-10) was 124.99%. The “Growth percent SW-620” value (SW-620) was 93.08%, the “Growth percent HCT-116” value (HCT-116) was 98.59% and the “Growth percent UO-31” value (UO-31) was 64.91%. The “Growth percent NCI/ADR-RES” value (NCI/ADR-RES) was 98.31%, the “Growth percent LOX IMVI” value (LOX IMVI) was 94.22% and the “Growth percent SK-MEL-5” value (SK-MEL-5) was 98.38%. For the same compound, the “Growth percent SNB-75” value (SNB-75) was 82.62%, the “Growth percent HOP-92” value (HOP-92) was 70.17% and the “Growth percent, Delta” value (60 cancer cell lines; delta over the cell panel) was 31.28%. For the same compound, the “Growth percent, Mean” value (60 cancer cell lines; mean over the cell panel) was 96.19%, the “Growth percent, Range” value (60 cancer cell lines; range over the cell panel) was 60.08% and the “Growth percent SF-268” value (SF-268) was 100.42%. For the same compound, the “Growth percent NCI-H226” value (NCI-H226) was 88.98%, the “Growth percent NCI-H522” value (NCI-H522) was 96.69% and the “Growth percent SR” value (SR) was 85.15%. For the same compound, the “Growth percent RPMI-8226” value (RPMI-8226) was 96.63%, the “Growth percent NCI-H460” value (NCI-H460) was 95.57% and the “Growth percent DU-145” value (DU-145) was 111.61%. For the same compound, the “Growth percent HT29” value (HT29) was 102.71%, the “Growth percent NCI-H23” value (NCI-H23) was 89.94% and the “Growth percent SF-295” value (SF-295) was 94.34%. For the same compound, the “Growth percent MOLT-4” value (MOLT-4) was 90.91%, the “Growth percent U251” value (U251) was 96.69% and the “Growth percent IGROV1” value (IGROV1) was 93.49%. For the same compound, the “Growth percent MALME-3M” value (MALME-3M) was 112.36% and the “Growth percent OVCAR-5” value (OVCAR-5) was 111.92%.

For `CCN(CC)CCNc1nc2ccccc2c2c(=O)c3cc(Cl)ccc3sc12` [Compound N8, 10-Chloro-6-((2-(diethylamino)ethyl)amino)-12H-thiochromeno[2,3-c]quinolin-12-one], the melting point was 152 to 153 °C, the IC50 ([1]; five different concentrations, TopoGEN TG2005H, TG-2000H-1, read-out: IC50 value, TOP II mediated supercoiled DNA relaxation) was ~1 µM and the “inhibitory effect in TOP II relaxation assay compared with VP-16” value ([1]; primary assay at 25 and/or 50 μM) was “more potent inhibitory effects than the positive agent VP-16”.
